Experimental data from patent US20030228373A1, “Composition including a triamine and a biocide and a method for inhibiting the growth of microorganisms with the same” (Lonza Inc., priority 2002, published 2003).

Tested on: microorganisms in the process water
Assay: Microbial count reduction in paper mill process water (3 h contact at 37° C., TGE agar plate count); synergism by the Kull method
Assay type: cell-based
Details: for Colony forming units per milliliter of sample (CFU/ml) after overnight incubation / Logarithmic Growth Reduction relative to the Control Experiment [log (CFU/ml of control plate) − log (CFU/ml of experimental plate)]: process water pH 7.0, 3 hours at 37° C.; for concentration alone required to yield a thousand fold reduction in the microorganism count of the process water (Qa, Qb): substance alone
Description: Samples of process water having a pH of 7.0 obtained from a paper mill were supplemented with Lonzabac® 12.100 and Barquat® MB-80 at the concentrations indicated in Table 1 below. Barquat® MB-80 is an 80% aqueous solution of N-(C12-C16 alkyl)-N-benzyl-N,N-dimethylammonium chloride available from Lonza Inc. of Fair Lawn, N.J. Lonzabac® 12.100 is a 100% N,N-bis(3-aminopropyl)-dodecylamine liquid available from Lonza Inc. The samples were immediately mixed and incubated for 3 hours at 37° C. with agitation in an orbital shaker. After 3 hours, tryptone glucose extract (TGE) agar plates were inoculated with each sample and grown overnight at 37° C. The number of colonies on each plate was then counted.
This experiment was repeated with a sample of process water that was not treated with Lonzabac® 12.100 or Barquat® MB-80 as a control.
Synergism for the solutions in Table 1 against the microorganisms in the process water was calculated by the methods described in C. E. Kull et al., “Mixtures of Quaternary Ammonium Compounds and Long-chain Fatty Acids as Antifungal Agents”, Applied Microbiology, 9:538-541 (1961). The synergism value (QA/Qa+QB/Qb) was determined. QA is the concentration of Lonzabac® 12.100 (in ppm) in a Lonzabac® 12.100/Barquat® MB-80 mixture, which yielded a thousand fold reduction in the microorganism count of the process water. Qa is the concentration of Lonzabac® 12.100 alone (in ppm) required to yield a thousand fold reduction in the microorganism count of the process water. QB is the concentration of Barquat® MB-80 (in ppm) in a Lonzabac® 12.100/Barquat® MB-80 mixture, which yielded a thousand fold reduction in the microorganism count of the process water. Qb is the concentration of Barquat® MB-80 alone (in ppm) required to yield a thousand fold reduction in the microorganism count of the process water.
The procedure in Example 1 was repeated substituting peracetic acid for Barquat® MB-80 with the solutions in Table 2 below.

Structure (SMILES)	Colony forming units per milliliter of sample (CFU/ml) after overnight incubation (Lonzabac 12.100 15 ppm alone)	Logarithmic Growth Reduction relative to the Control Experiment [log (CFU/ml of control plate) − log (CFU/ml of experimental plate)] (Lonzabac 12.100 15 ppm alone)	Colony forming units per milliliter of sample (CFU/ml) after overnight incubation (Lonzabac 12.100 30 ppm alone)	Logarithmic Growth Reduction relative to the Control Experiment [log (CFU/ml of control plate) − log (CFU/ml of experimental plate)] (Lonzabac 12.100 30 ppm alone)	Colony forming units per milliliter of sample (CFU/ml) after overnight incubation (Lonzabac 12.100 60 ppm alone)	Logarithmic Growth Reduction relative to the Control Experiment [log (CFU/ml of control plate) − log (CFU/ml of experimental plate)] (Lonzabac 12.100 60 ppm alone)	Colony forming units per milliliter of sample (CFU/ml) after overnight incubation (Lonzabac 12.100 90 ppm alone)	Logarithmic Growth Reduction relative to the Control Experiment [log (CFU/ml of control plate) − log (CFU/ml of experimental plate)] (Lonzabac 12.100 90 ppm alone)	concentration alone required to yield a thousand fold reduction in the microorganism count of the process water (Qa, Qb) [ppm]	Colony forming units per milliliter of sample (CFU/ml) after overnight incubation (Peracetic Acid 20 ppm alone)	Logarithmic Growth Reduction relative to the Control Experiment [log (CFU/ml of control plate) − log (CFU/ml of experimental plate)] (Peracetic Acid 20 ppm alone)	Colony forming units per milliliter of sample (CFU/ml) after overnight incubation (Peracetic Acid 50 ppm alone)	Logarithmic Growth Reduction relative to the Control Experiment [log (CFU/ml of control plate) − log (CFU/ml of experimental plate)] (Peracetic Acid 50 ppm alone)
CCCCCCCCCCCCN(CCCN)CCCN [Lonzabac ® 12.100, N,N-bis(3-aminopropyl)-dodecylamine]	6.55 × 10^7 CFU/ml	0.7	6.40 × 10^6 CFU/ml	1.7	3.25 × 10^5 CFU/ml	3.0	1.00 × 10^5 CFU/ml	3.5	60	–	–	–	–
CC(=O)OO [Peracetic Acid, peracetic acid, reference compound]	–	–	–	–	–	–	–	–	50	1.43 × 10^7 CFU/ml	1.3	1.00 × 10^5 CFU/ml	3.2
